Laboratory results as given in ChEMBL document CHEMBL1131160, “5-Substituted pyrimidines with a 1,5-anhydro-2, 3-dideoxy-D-arabino-hexitol moiety at N-1: synthesis, antiviral activity, conformational analysis, and interaction with viral thymidine kinase” (1998).
Converted amounts (≈) assume the structure as drawn.

Experiments:
[1] = system: Human cytomegalovirus (AD-169); assay: Compound was evaluated for the minimum inhibition concentration required to reduce virus-induced cytopathogenicity by 50%, determined against Cytomegalovirus (AD-169) in HEL cells.
E6SM [2] = assay: Compound was evaluated for the minimum cytotoxic concentration required to cause a microscopically detectable alteration of normal cell morphology.; type: functional; conditions: Homo sapiens
E6SM [3] = assay: Compound was evaluated for the minimum inhibition concentration required to reduce virus-induced cytopathogenicity by 50%, determined against KOS,F,McIntyre strains of HSV-1 virus.; type: functional; conditions: Homo sapiens
E6SM [4] = assay: Compound was evaluated for the minimum inhibition concentration required to reduce virus-induced cytopathogenicity by 50%, determined against HSV-2 virus as means of G, 196, and Lyons strains; type: functional; conditions: Homo sapiens
E6SM [5] = assay: Compound was evaluated for the minimum inhibition concentration required to reduce virus-induced cytopathogenicity by 50%, determined against HSV-1 (TK-B2006) virus; type: functional; conditions: Homo sapiens

SMILES	MIC [1]	MCC (E6SM [2])	MIC (E6SM [3])	MIC (E6SM [4])	MIC (E6SM [5])
O=c1[nH]c(=O)n(C2COC(CO)C(O)C2)cc1-c1cccs1 (configuration not stated)	> 50 µg/mL	> 400 µg/mL	240 µg/mL (≈ 740 µM)	240 µg/mL (≈ 740 µM)	240 µg/mL (≈ 740 µM)
O=c1[nH]c(=O)n(C2COC(CO)C(O)C2)cc1Cl (configuration not stated)	> 50 µg/mL	> 400 µg/mL	> 400 µg/mL	> 400 µg/mL	> 400 µg/mL
C=Cc1cn(C2COC(CO)C(O)C2)c(=O)[nH]c1=O (configuration not stated)	> 50 µg/mL	> 400 µg/mL	0.075 µg/mL (≈ 0.28 µM)	9.6 µg/mL (≈ 35.8 µM)	240 µg/mL (≈ 895 µM)
CC#Cc1cn(C2COC(CO)C(O)C2)c(=O)[nH]c1=O (configuration not stated)	> 50 µg/mL	> 400 µg/mL	0.38 µg/mL (≈ 1.36 µM)	16 µg/mL (≈ 57.1 µM)	48 µg/mL (≈ 171 µM)
O=c1[nH]c(=O)n(C2COC(CO)C(O)C2)cc1C(F)(F)F (configuration not stated)	> 50 µg/mL	> 400 µg/mL	0.025 µg/mL (≈ 0.0806 µM)	0.38 µg/mL (≈ 1.22 µM)	9.8 µg/mL (≈ 31.6 µM)
Nc1nc2c(ncn2COCCO)c(=O)[nH]1 [ACYCLOVIR]		> 200 µg/mL	0.075 µg/mL (≈ 0.333 µM)	0.38 µg/mL (≈ 1.69 µM)	1.92 µg/mL (≈ 8.53 µM)
O=c1[nH]c(=O)n(C2COC(CO)C(O)C2)cc1I (configuration not stated)	> 40 µg/mL	> 400 µg/mL	0.025 µg/mL (≈ 0.0679 µM)	0.5 µg/mL (≈ 1.36 µM)	> 400 µg/mL
C#Cc1cn(C2COC(CO)C(O)C2)c(=O)[nH]c1=O (configuration not stated)	> 50 µg/mL		48 µg/mL (≈ 180 µM)	> 400 µg/mL	> 400 µg/mL
O=c1[nH]c(=O)n([C@H]2C[C@H](O)[C@@H](CO)O2)cc1/C=C/Br [BRIVUDINE]		> 200 µg/mL	0.015 µg/mL (≈ 0.045 µM)	> 80 µg/mL	3.2 µg/mL (≈ 9.61 µM)
